Measured values from patent US12144788B2, “Visual cycle modulators” (CASE WESTERN RESERVE UNIVERSITY, priority 2017, dated 2024).

What was measured:
[1] = system: visual chromophore regeneration in C57BL6J mouse eyes; experiment: visual chromophore recovery assay (ocular 11-cis-retinal by HPLC after bleach); assay type: in vivo; conditions: for visual chromophore regeneration: 10 μg/mouse oral gavage 24 h before light exposure (95% bleach), 6 h dark adaptation; for effect on 11-cis-retinal recovery / visual cycle function: 500 μg (0.5 mg/mouse) oral gavage 24 h before light exposure
Method: FIG. 4 illustrates inhibition of visual chromophore regeneration in C57BL6J mouse eyes by MB compounds. The MB drugs were administrated to mice by oral gavage 24 h prior to light exposure for 10 min. Then all mice recovered under darkness for 6 h.
(§1) Abca4^−/−Rdh8^−/− mice on a C57BL/6J background were generated as previously described. Male and female WT mice with C57BL/6J backgrounds were obtained from The Jackson Laboratory. Abca4^−/−Rdh8^−/− mice used in this study were homozygous for the Leu450 allele of Rpe65 as determined by a genotyping protocol published previously and free of Crb1/rd8 and rd/rd mutations Animals were housed either in the animal facility at the Case Western Reserve University School of Medicine, where they received a standard chow diet (LabDiet 5053) and were maintained under a 12-h light (˜300 lux) and 12-h dark cycle or at the Cole Eye Institute animal facility where they were. Mice were dark adapted overnight prior to all experiments. A cohort of Rdh8^−/−Abca4^−/− or C57BL/6J mice was used when they reached the age of 1 to 2 months, and both sexes were used evenly. All tested primary amines were suspended in 100 μl soybean oil with less than 10% (v/v) DMSO and were administered by oral gavage with a 22-gauge feeding needle. Experimental manipulations in the dark were done under dim red light transmitted through a Kodak No. 1 Safelight Filter (transmittance >560 nm).
After bright light exposure resulting in photoactivation of 95% of rhodopsin, mice were kept in the dark for 6 h. Then, the animals were euthanized and their eyes were collected and homogenized in 10 mM sodium phosphate buffer, pH 7.4, containing 50% methanol (v/v) and 40 mM hydroxylamine. The resulting mixture was extracted with 4 ml of hexanes.
Next, we tested the effects of the MB compound series on retinoid cycle function in the living mouse. […] After the light treatment, mice were allowed to dark adapt for 6 h before their ocular retinoid content was determined by HPLC. […] To examine the possibility that the lack of MB-008 efficacy at 24 h was due to insufficient concentrations resulting from a shorter elimination half-life or poorer bioavailability, we repeated the experiment with the mice subjected to light exposure 4 h after MB-008 administration. A 100 μg dose of MB-008 suppressed visual chromophore regeneration by ˜80%, supporting the idea that the retinal concentration of MB-008 could be sub-effective at the longer post-treatment light challenge.

Abca4−/−Rdh8−/− mice = experiment: protection against light-induced retinal degeneration (OCT, ONL thickness); assay type: in vivo, mouse
Method: FIGS. 7(A-B) illustrate protective effects of MB compounds against light-induced retinal degeneration in Abca4^−/−Rdh8^−/− mice. Drugs were administrated at the indicated doses to 4-6 week-old Abca4^−/−Rdh8^−/− mice (weight ˜20 g) by oral gavage. After a 24 h dark adaptation, mice were exposed to 10,000 lux light for 30 min and then returned to a dark environment for 3 days. (A) Representative OCT images of mice treated with MB compounds. A dramatic decrease in the ONL indicates advanced retinal degeneration. The black scale beside the DMSO image represents 50 μm. (B) Retinal protective effects exerted by MB compounds as quantified by average ONL thickness. Only non-scattering ONL layers were measured. For images in which the ONL layer boundary was obscured due to light scattering, the ONL length was recorded as 0 μm. Error bars represent standard deviations; n=3-5 for each group.
as §1
After dark adaptation for 24 h, Abca4^−/−Rdh8^−/− mice with pupils dilated by 1% tropicamide were exposed to fluorescent light (10,000 lux; 150 W spiral lamp; Commercial Electric) for 30 min in a white paper bucket (Papersmith) and then kept in the dark for an additional 3 days. Development of retinal degeneration was then determined by ultra-high-resolution spectral domain OCT (SD-OCT; Bioptigen) and ERG as previously described.
To examine the ability of […] cause retinal damage in the absence of treatment with protective agents. Three days later retinas were imaged in vivo by optical coherence tomography, with preservation of outer nuclear layer thickness and light scattering properties serving as markers for retinal health. MB-001, which is capable of preventing light-induced retinal degeneration through both direct RPE65 inhibition as well as retinal sequestration served as a positive control for these experiments.

RPE65 = RPE65 (Bos taurus, UniProt Q28175); experiment: in vitro retinoid isomerase activity assay with bovine RPE microsomes; conditions: for times more potent compared to emixustat (racemic): RPE65 inhibition, bovine RPE microsomes; for inhibition against retinoid isomerization: up to concentrations of 50 μM
Method: Primary amines were pre-incubated with bovine RPE microsomes at room temperature for 5 min, then all-trans-retinol was added and the mixtures were incubated at 37° C. All incubation mixtures were quenched by the addition of methanol after 1 h of incubation. Inhibition of RPE65 enzymatic activity was measured as a decline in 11-cis-retinol production.
Synthesized primary amine (1 μl in DMF, with the final concentration ranging between 50 nM and 50 μM) was added to 10 mM Bis-Tris propane/HCl buffer, pH 7.4, containing 150 μg RPE microsomes, 1% BSA, 1 mM disodium pyrophosphate, and 20 μM aporetinaldehyde-binding protein 1 (CRALBP). The resulting mixture was pre-incubated at room temperature for 5 min. Then, all-trans-retinol (1 μl in DMF, at a final concentration of 20 μM) was added. The resulting mixture was incubated at 37° C. for 1 h. The reaction was quenched by adding 300 μl methanol, and products were extracted with 300 μl hexanes. Production of 11-cis-retinol was quantified by normal-phase HPLC with 10% (v/v) EtOAc in hexanes as the eluent at a flow rate of 1.4 ml/min. Retinoids were detected by monitoring their absorbance at 325 nm and quantified based on a standard curve representing the relationship between the amount of synthetic 11-cis-retinol standard and the area under the corresponding chromatographic peak.
To test these structural predictions, we examined the inhibitory activity of the compounds against RPE65 activity in an in vitro retinoid isomerase assay using bovine RPE microsomes as the enzyme source.

C57BL/6J mice = experiment: in vivo dark-adapted ERG recordings after bleach; parameters: species or system mouse; conditions: gavage 1 day before bleach, doses indicated effective by retinoid analysis
Method: FIG. 5 illustrates ERG responses of mice treated with visual cycle modulators. Oral gavage was used to administer vehicle or MB compounds to mice 24 h prior to 10 min light exposure followed by 6 h of dark adaptation. Dark-adapted ERGs were obtained to strobe flash stimuli.
C57BL/6J mice aged 1.5-4 months were anesthetized with ketamine (80 mg/kg) and xylazine (16 mg/kg) after overnight dark adaptation. Mydriatic eye drops were used to dilate the pupil (1% tropicamide; 2.5% phenylephrine). ERGs were obtained using an active electrode that contacted the corneal surface; needle electrodes placed in the cheek and tail provided reference and ground leads, respectively. Strobe stimuli were presented to the dark-adapted eye in an LKC (Gaithersburg, MD) ganzfeld. Responses were amplified, averaged and stored using an LKC UTAS E-3000 signal averaging system.
Baseline dark-adapted ERGs were recorded from each mouse. After a minimum 1 day interval, MB compounds or vehicle were administered by gavage at 9 a.m. The next morning, mydriatic eye drops were used to dilate the pupils and mice were then exposed to a 10-minute 10,000 lux bleach. Mice were dark-adapted for 6 hours, after which ERGs were recorded.
We next examined the impact of these compounds on retinal function, measured using the electroretinogram (ERG). FIG. 5 presents a family of dark-adapted ERGs measured 6 hours after mice underwent a 95% bleach presented 1 day following gavage administration of vehicle or MB compound molecules at doses indicated to be effective by retinoid analysis. […] In comparison, mice administered with MB compound molecules had had reduced amplitude ERGs indicative of incomplete bleaching recovery. […] In response to higher luminance stimuli, reproducible responses were observed. That these reflect dark-adapted cone-mediated responses is supported by their similarity to responses obtained from transducin KO mice which lack rod-mediated activity, while retaining normal cone-mediated responses, and have a very similar ERG phenotype.

[2] = identification of atRAL Schiff base conjugates with MB compounds in mouse eyes; assay type: in vivo; conditions: Abca4−/−Rdh8−/− mice, 50 mg/kg oral gavage, bright light exposure 10 min; mass spectrometry versus standards
Method: FIGS. 6(A-B) illustrate identification of retinal Schiff base conjugates in Abca4^−/− Rdh8^−/− mice treated with MB-005 and MB-006. Following drug administration, mice were exposed to intense light for 10 min. After a 30 min recovery under darkness, animals were sacrificed and retinoids were extracted from the eyes. (A, B) Shown in the top panels are selective ion chromatograms for MB-005-retinal conjugates (A, at m/z=572.6) and MB-006-retinal conjugates (B, at m/z=588.6). Panels on the bottom show the mass spectra of the peaks coinciding with the retention times of their authentic standards. The insets display the MS/MS fragmentation patterns of the two imines, which were identical to the corresponding standards.
MB-005 or MB-006 (50 mg/kg) were administrated by oral gavage to Abca4^−/−Rdh8^−/− mice 24 h prior to light exposure. After exposure to fluorescent light for 10 min, animals were euthanized and their eyes were collected and homogenized in acetonitrile. After centrifugation, the supernatant was concentrated to 400 μl under vacuum. […]
With the effects of these compounds on visual cycle function established we next sought to examine their ability to form retinal-Schiff base conjugates in vivo. […] Retinoids were extracted and analyzed by mass spectrometry. […]

[3] = 1 mg per mouse oral gavage 24 h before light

RPE65, sequence (Q28175 whole entry): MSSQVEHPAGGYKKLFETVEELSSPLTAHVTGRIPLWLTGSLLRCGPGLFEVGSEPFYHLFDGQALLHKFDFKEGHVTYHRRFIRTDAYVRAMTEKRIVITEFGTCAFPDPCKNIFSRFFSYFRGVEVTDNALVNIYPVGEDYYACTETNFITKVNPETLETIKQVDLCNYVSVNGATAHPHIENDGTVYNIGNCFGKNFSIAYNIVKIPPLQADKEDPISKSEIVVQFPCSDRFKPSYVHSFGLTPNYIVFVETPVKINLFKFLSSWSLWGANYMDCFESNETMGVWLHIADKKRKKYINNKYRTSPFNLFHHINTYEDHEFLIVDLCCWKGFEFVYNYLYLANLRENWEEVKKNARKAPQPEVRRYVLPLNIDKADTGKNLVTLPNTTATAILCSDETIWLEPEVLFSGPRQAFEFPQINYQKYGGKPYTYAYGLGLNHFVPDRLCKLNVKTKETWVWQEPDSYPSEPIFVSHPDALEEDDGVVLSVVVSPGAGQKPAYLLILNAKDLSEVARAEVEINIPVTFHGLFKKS

Compound | IC50 (RPE65) [nM] | times more potent compared to emixustat (racemic) (RPE65) | inhibition against retinoid isomerization (RPE65) | visual chromophore regeneration [1] | dark-adapted ERG 6 hours after 95% bleach (C57BL/6J mice) | effect on 11-cis-retinal recovery / visual cycle function ([1]; 6 h dark) | protection against light-induced retinal degeneration (Abca4−/−Rdh8−/− mice; [3]) | other results
CC1=C(COc2cccc([C@H](O)CCN)c2)C(C)(C)CCC1 [MB-001, reference compound] |  |  |  |  | responses to low luminance stimuli that were not different from background noise levels |  |  | protection against light-induced retinal degeneration (Abca4−/−Rdh8−/− mice; 50 μg oral gavage 24 h before light, positive control): fully protective
CC(C)c1cc(OCC2CCCCC2)cc(C(O)CCN)c1 (stereo not drawn) [MB-006, 3-Amino-1-(3-(cyclohexylmethoxy)-5-isopropylphenyl)propan-1-ol] |  |  | minimal or no inhibition |  | less incomplete recovery | strongly suppressed visual cycle function | protective | visual chromophore production, % of the vehicle control ([1]; 500 μg oral gavage 24 h before light exposure): ~30%; visual chromophore production, % of the vehicle control ([1]; 1000 μg oral gavage 24 h before light exposure): ~20%; retinal Schiff base adducts in eye extracts [2]: contained compounds matching the expected molecular weight of the respective Schiff base adducts; protection against light-induced retinal degeneration (Abca4−/−Rdh8−/− mice; 0.5 mg per mouse oral gavage 24 h before light): not
CC1=C(COc2cc(C(C)C)cc(C(O)CCN)c2)C(C)(C)CCC1 (stereo not drawn) [MB-007, 3-Amino-1-(3-isopropyl-5-((2,6,6-trimethylcyclohex-1-en-1-yl)methoxy)phenyl)propan-1-ol] |  |  | minimal or no inhibition |  |  | minimal effects | no more protective than vehicle control | inhibition of 11-cis-retinal recovery (suppression of visual chromophore regeneration) ([1]; two-fold higher dose than 500 μg (1 mg per mouse), oral gavage 24 h before light exposure): ~50%

Continued, in another order:

IC50 (RPE65) [nM] | times more potent compared to emixustat (racemic) (RPE65) | inhibition against retinoid isomerization (RPE65) | Compound | visual chromophore regeneration [1] | dark-adapted ERG 6 hours after 95% bleach (C57BL/6J mice) | effect on 11-cis-retinal recovery / visual cycle function ([1]; 6 h dark) | protection against light-induced retinal degeneration (Abca4−/−Rdh8−/− mice; [3]) | other results
189 ± 31 | ~1.2 times |  | CCCC(CCO)COc1cccc(C(O)CCN)c1 (mixture of isomers) [MB-008, 3-((3-(3-Amino-1-hydroxypropyl)phenoxy)methyl)hexan-1-ol] | recovered visual chromophore to a level comparable to vehicle-treated mice |  |  |  | suppression of visual chromophore regeneration ([1]; 100 μg dose, light exposure 4 h after administration): ~80%; suppression in visual cycle function ([1]; ten-fold higher dose than 10 μg, oral gavage 24 h before light exposure, 6 h dark): 30%; protection against light-induced retinal degeneration (Abca4−/−Rdh8−/− mice; doses as high as 0.25 mg, administered 24 h prior to the light challenge): poorly protective; effect of shortening the duration between administration and light challenge on protection (Abca4−/−Rdh8−/− mice; from 24 to 6 h): substantially improved the protective effects; protection against light-induced retinal degeneration (Abca4−/−Rdh8−/− mice; shorter time period (6 h), dose ten-times higher than that used for MB-004): full protection
106 ± 16 | approximately 2.2 times |  | CCCC(CCC)COc1cccc([C@H](O)CCN)c1 [MB-004] | dramatically suppressed visual chromophore regeneration | responses to low luminance stimuli that were not different from background noise levels |  |  | protective effect relative to MB-001 (Abca4−/−Rdh8−/− mice; 25 μg oral gavage 24 h before 10,000 lux light, OCT 3 days later): approximately 80%
